The target in one experiment is GCN2 (Homo sapiens (Human), UniProt Q9P2K8). Description: TR-FRET biochemical assay for inhibition of GCN2.
GCN2, sequence (Q9P2K8 whole entry): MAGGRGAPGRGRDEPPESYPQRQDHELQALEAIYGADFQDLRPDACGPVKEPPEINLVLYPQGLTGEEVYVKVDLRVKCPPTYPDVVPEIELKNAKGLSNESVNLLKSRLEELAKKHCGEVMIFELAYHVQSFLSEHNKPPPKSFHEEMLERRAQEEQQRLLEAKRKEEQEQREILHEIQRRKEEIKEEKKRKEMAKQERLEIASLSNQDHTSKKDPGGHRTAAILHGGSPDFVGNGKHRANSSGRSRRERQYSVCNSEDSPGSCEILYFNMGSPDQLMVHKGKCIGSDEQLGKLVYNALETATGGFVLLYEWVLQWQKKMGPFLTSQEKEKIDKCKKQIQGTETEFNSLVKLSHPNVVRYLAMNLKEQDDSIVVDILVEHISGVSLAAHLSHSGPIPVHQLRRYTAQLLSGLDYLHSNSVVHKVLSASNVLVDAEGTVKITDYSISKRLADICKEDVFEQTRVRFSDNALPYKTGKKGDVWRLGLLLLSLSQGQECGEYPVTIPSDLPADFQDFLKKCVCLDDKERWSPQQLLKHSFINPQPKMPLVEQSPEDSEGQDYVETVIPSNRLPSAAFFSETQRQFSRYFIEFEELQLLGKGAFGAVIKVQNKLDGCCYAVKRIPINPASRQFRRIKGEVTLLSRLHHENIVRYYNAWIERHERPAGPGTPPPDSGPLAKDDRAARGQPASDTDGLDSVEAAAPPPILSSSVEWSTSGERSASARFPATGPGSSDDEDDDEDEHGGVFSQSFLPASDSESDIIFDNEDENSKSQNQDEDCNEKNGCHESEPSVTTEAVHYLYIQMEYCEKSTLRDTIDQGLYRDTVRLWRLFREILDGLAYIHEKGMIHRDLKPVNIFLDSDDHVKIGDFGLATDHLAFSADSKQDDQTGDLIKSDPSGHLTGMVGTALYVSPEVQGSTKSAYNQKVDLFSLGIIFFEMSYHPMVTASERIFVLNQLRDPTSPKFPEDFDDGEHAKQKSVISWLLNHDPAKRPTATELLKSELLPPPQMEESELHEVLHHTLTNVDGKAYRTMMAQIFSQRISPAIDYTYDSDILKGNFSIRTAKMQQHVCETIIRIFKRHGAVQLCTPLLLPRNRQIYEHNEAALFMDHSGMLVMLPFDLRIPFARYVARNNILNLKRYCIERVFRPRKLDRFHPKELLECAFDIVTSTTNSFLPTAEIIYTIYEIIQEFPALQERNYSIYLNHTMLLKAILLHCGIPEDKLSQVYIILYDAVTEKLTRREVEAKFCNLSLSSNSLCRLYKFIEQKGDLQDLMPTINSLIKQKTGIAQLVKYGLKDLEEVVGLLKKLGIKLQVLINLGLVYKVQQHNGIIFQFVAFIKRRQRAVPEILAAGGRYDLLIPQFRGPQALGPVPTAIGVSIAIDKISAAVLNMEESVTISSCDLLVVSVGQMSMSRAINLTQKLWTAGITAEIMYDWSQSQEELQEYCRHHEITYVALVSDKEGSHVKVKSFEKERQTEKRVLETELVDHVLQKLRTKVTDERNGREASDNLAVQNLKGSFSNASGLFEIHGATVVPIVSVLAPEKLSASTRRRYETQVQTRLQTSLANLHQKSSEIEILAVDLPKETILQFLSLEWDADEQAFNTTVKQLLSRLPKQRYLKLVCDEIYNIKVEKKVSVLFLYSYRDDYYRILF
Conditions: not given
A general note: Time-resolved FRET reads energy transfer from a long-lived donor to a nearby acceptor.
By IC50 is commonly meant the concentration that inhibits the measured activity by half. High values mean lower potency, low ones higher potency. For the molecule `CNC(=O)c1ncn2cc(-c3c(F)ccc(NS(=O)(=O)c4cc(Cl)cnc4OC)c3C)ccc12` [Compound 122, 6-[3-(5-chloro-2-methoxypyridine-3-sulfonamido)-6-fluoro-2-methylphenyl]-N-methylimidazo[1,5-a]pyridine-1-carboxamide], the IC50 fell in the range of 50 to 500 nM.
The same measure, in the same setting: under `COc1ncc(F)cc1S(=O)(=O)Nc1ccc(F)c(-c2cn3cnc(-c4nnc(C)[nH]4)c3cn2)c1F` [Compound 127, N-[2,4-difluoro-3-[1-(5-methyl-4H-1,2,4-triazol-3-yl)imidazo[1,5-a]pyrazin-6-yl]phenyl]-5-fluoro-2-methoxypyridine-3-sulfonamide] stands 50 to 500 nM; under `COc1ncc(C#N)cc1S(=O)(=O)Nc1ccc(F)c(-c2cn3cnc(-c4nnc(C)[nH]4)c3cn2)c1F` [Compound 128, 5-cyano-N-[2,4-difluoro-3-[1-(5-methyl-4H-1,2,4-triazol-3-yl)imidazo[1,5-a]pyrazin-6-yl]phenyl]-2-methoxypyridine-3-sulfonamide], 50 to 500 nM.
The molecule `COc1ncc(C#N)cc1S(=O)(=O)Nc1ccc(F)c([C@@H]2CCc3c(-c4nnc(C)[nH]4)ncn3C2)c1F` [Compound 135-1, 5-cyano-N-[2,4-difluoro-3-[(6S)-1-(5-methyl-4H-1,2,4-triazol-3-yl)-5H,6H,7H,8H-imidazo[1,5-a]pyridin-6-yl]phenyl]-2-methoxypyridine-3-sulfonamide] gave an IC50 of 50 to 500 nM.
For `COc1ncc(C#N)cc1S(=O)(=O)Nc1ccc(F)c([C@H]2CCc3c(-c4nnc(C)[nH]4)ncn3C2)c1F` [Compound 135-2, 5-cyano-N-[2,4-difluoro-3-[(6R)-1-(5-methyl-4H-1,2,4-triazol-3-yl)-5H,6H,7H,8H-imidazo[1,5-a]pyridin-6-yl]phenyl]-2-methoxypyridine-3-sulfonamide], the 50% inhibitory concentration (IC50) lay in the range of 50 to 500 nM.

The experiment is the same for the next values; noted with them: GCN2 2 nM, 100 nM GFP-eIF2a, 150 μM ATP, TR-FRET.
`Cc1ncc(Cl)cc1S(=O)(=O)Nc1ccc(F)c(-c2ccc3c(-c4ccno4)ncn3c2)c1F` [Compound 121, 5-chloro-N-[2,4-difluoro-3-[1-(1,2-oxazol-5-yl)imidazo[1,5-a]pyridin-6-yl]phenyl]-2-methylpyridine-3-sulfonamide] gave an IC50 of less than 50 nM.
`COc1ncc(C#N)cc1S(=O)(=O)Nc1ccc(F)c(-c2ccc3c(-c4nc5c([nH]4)CCCC5)ncn3c2)c1F` [Compound 123, 5-cyano-N-[2,4-difluoro-3-[1-(4,5,6,7-tetrahydro-1H-1,3-benzodiazol-2-yl)imidazo[1,5-a]pyridin-6-yl]phenyl]-2-methoxypyridine-3-sulfonamide] yielded an IC50 of less than 50 nM.
For `COc1ncc(Cl)cc1S(=O)(=O)Nc1ccc(F)c(-c2cn3cnc(-c4nnc(C)[nH]4)c3cn2)c1F` [Compound 124, 5-chloro-N-[2,4-difluoro-3-[1-(5-methyl-4H-1,2,4-triazol-3-yl)imidazo[1,5-a]pyrazin-6-yl]phenyl]-2-methoxypyridine-3-sulfonamide], the IC50 was less than 50 nM.
Take `Cc1ncc(F)cc1S(=O)(=O)Nc1ccc(F)c(-c2ccc3c(-c4ccno4)ncn3c2)c1F` [Compound 125, N-[2,4-difluoro-3-[1-(1,2-oxazol-5-yl)imidazo[1,5-a]pyridin-6-yl]phenyl]-5-fluoro-2-methylpyridine-3-sulfonamide]: the concentration for half-maximal inhibition (IC50) was less than 50 nM.
Molecule `COc1ncc(C#N)cc1S(=O)(=O)Nc1ccc(F)c(-c2ccc3c(-c4nc(C)c(C)[nH]4)ncn3c2)c1F` [Compound 126, 5-cyano-N-[3-[1-(4,5-dimethyl-1H-imidazol-2-yl)imidazo[1,5-a]pyridin-6-yl]-2,4-difluorophenyl]-2-methoxypyridine-3-sulfonamide] returned an IC50 of less than 50 nM.
Consider `Cc1nnc(-c2ncn3cc(-c4c(F)ccc(NS(=O)(=O)c5cc(F)cnc5C)c4F)ncc23)[nH]1` [Compound 129, N-[2,4-difluoro-3-[1-(5-methyl-4H-1,2,4-triazol-3-yl)imidazo[1,5-a]pyrazin-6-yl]phenyl]-5-fluoro-2-methylpyridine-3-sulfonamide], for which the half-maximal inhibitory concentration (IC50) is less than 50 nM.
Turning to `COc1ncc(Cl)cc1S(=O)(=O)Nc1ccc(F)c([C@@H]2CCc3c(-c4nnc(C)[nH]4)ncn3C2)c1F` [Compound 130-1, 5-chloro-N-[2,4-difluoro-3-[(6S)-1-(5-methyl-4H-1,2,4-triazol-3-yl)-5H,6H,7H,8H-imidazo[1,5-a]pyridin-6-yl]phenyl]-2-methoxypyridine-3-sulfonamide], the IC50 is less than 50 nM.
Regarding `COc1ncc(Cl)cc1S(=O)(=O)Nc1ccc(F)c([C@H]2CCc3c(-c4nnc(C)[nH]4)ncn3C2)c1F` [Compound 130-2, 5-chloro-N-[2,4-difluoro-3-[(6R)-1-(5-methyl-4H-1,2,4-triazol-3-yl)-5H,6H,7H,8H-imidazo[1,5-a]pyridin-6-yl]phenyl]-2-methoxypyridine-3-sulfonamide], the concentration for half-maximal inhibition (IC50) is less than 50 nM.
Regarding `COc1ncc(F)cc1S(=O)(=O)Nc1ccc(F)c([C@@H]2CCc3c(-c4nnc(C)[nH]4)ncn3C2)c1F` [Compound 131-1, N-[2,4-difluoro-3-[(6S)-1-(5-methyl-4H-1,2,4-triazol-3-yl)-5H,6H,7H,8H-imidazo[1,5-a]pyridin-6-yl]phenyl]-5-fluoro-2-methoxypyridine-3-sulfonamide], the half-maximal inhibitory concentration (IC50) is less than 50 nM.
As to `COc1ncc(F)cc1S(=O)(=O)Nc1ccc(F)c([C@H]2CCc3c(-c4nnc(C)[nH]4)ncn3C2)c1F` [Compound 131-2, N-[2,4-difluoro-3-[(6R)-1-(5-methyl-4H-1,2,4-triazol-3-yl)-5H,6H,7H,8H-imidazo[1,5-a]pyridin-6-yl]phenyl]-5-fluoro-2-methoxypyridine-3-sulfonamide], the IC50 is less than 50 nM.
Molecule `CNC(=O)c1ncn2cc(-c3c(F)ccc(NS(=O)(=O)c4cc(Cl)c[nH]c4=O)c3F)ncc12` [Compound 132, 6-(3-((5-chloro-2-oxo-1,2-dihydropyridine)-3-sulfonamido)-2,6-difluorophenyl)-N-methylimidazo[1,5-a]pyrazine-1-carboxamide] returned a half-maximal inhibitory concentration (IC50) greater than 1000 nM.
On the same count and under the same terms, under `Cc1nnc(-c2ncn3cc(-c4c(F)ccc(NS(=O)(=O)c5cc(Cl)cnc5C)c4F)ncc23)[nH]1` [Compound 133, 5-chloro-N-[2,4-difluoro-3-[1-(5-methyl-4H-1,2,4-triazol-3-yl)imidazo[1,5-a]pyrazin-6-yl]phenyl]-2-methylpyridine-3-sulfonamide] stands less than 50 nM; under `Cc1nnc(-c2ncn3c2CC[C@@H](c2c(F)ccc(NS(=O)(=O)c4cc(F)cnc4C)c2F)C3)[nH]1` [Compound 134-1, N-[2,4-difluoro-3-[(6S)-1-(5-methyl-4H-1,2,4-triazol-3-yl)-5H,6H,7H,8H-imidazo[1,5-a]pyridin-6-yl]phenyl]-5-fluoro-2-methylpyridine-3-sulfonamide], less than 50 nM.
As to `Cc1nnc(-c2ncn3c2CC[C@H](c2c(F)ccc(NS(=O)(=O)c4cc(F)cnc4C)c2F)C3)[nH]1` [Compound 134-2, N-[2,4-difluoro-3-[(6R)-1-(5-methyl-4H-1,2,4-triazol-3-yl)-5H,6H,7H,8H-imidazo[1,5-a]pyridin-6-yl]phenyl]-5-fluoro-2-methylpyridine-3-sulfonamide], the IC50 is less than 50 nM.
In turn, `Cc1nnc(-c2ncn3c2CC[C@@H](c2c(F)ccc(NS(=O)(=O)c4cc(Cl)cnc4C)c2F)C3)[nH]1` [Compound 136-1, 5-chloro-N-[2,4-difluoro-3-[(6S)-1-(5-methyl-4H-1,2,4-triazol-3-yl)-5H,6H,7H,8H-imidazo[1,5-a]pyridin-6-yl]phenyl]-2-methylpyridine-3-sulfonamide] registered an IC50 of less than 50 nM.
As for `Cc1nnc(-c2ncn3c2CC[C@H](c2c(F)ccc(NS(=O)(=O)c4cc(Cl)cnc4C)c2F)C3)[nH]1` [Compound 136-2, 5-chloro-N-[2,4-difluoro-3-[(6R)-1-(5-methyl-4H-1,2,4-triazol-3-yl)-5H,6H,7H,8H-imidazo[1,5-a]pyridin-6-yl]phenyl]-2-methylpyridine-3-sulfonamide], the IC50 was less than 50 nM.
As to `CNC(=O)c1ncn2cc(-c3c(Cl)ccc(NS(=O)(=O)c4cc(Cl)cnc4OC)c3F)ccc12` [Compound 137, 6-[6-chloro-3-(5-chloro-2-methoxypyridine-3-sulfonamido)-2-fluorophenyl]-N-methylimidazo[1,5-a]pyridine-1-carboxamide], the IC50 is less than 50 nM.
As to `CNC(=O)c1ncn2nc(-c3c(Cl)ccc(NS(=O)(=O)c4cc(Cl)cnc4C)c3F)ccc12` [Compound 138, 2-[6-chloro-3-(5-chloro-2-methylpyridine-3-sulfonamido)-2-fluorophenyl]-N-methylimidazo[1,5-b]pyridazine-5-carboxamide], the IC50 is less than 50 nM.
`CNC(=O)c1ncn2nc(-c3c(F)ccc(NS(=O)(=O)c4cc(Cl)cnc4C)c3Cl)ccc12` [Compound 139, 2-[2-chloro-3-(5-chloro-2-methylpyridine-3-sulfonamido)-6-fluorophenyl]-N-methylimidazo[1,5-b]pyridazine-5-carboxamide]: the IC50 was less than 50 nM.
On to `CNC(=O)c1ncn2cc(-c3c(Cl)ccc(NS(=O)(=O)c4cc(Cl)cnc4OC)c3F)ncc12` [Compound 141, 6-(6-chloro-3-((5-chloro-2-methoxypyridine)-3-sulfonamido)-2-fluorophenyl)-N-methylimidazo[1,5-a]pyrazine-1-carboxamide], for which the IC50 was less than 50 nM.
Regarding `COc1ncc(F)cc1S(=O)(=O)Nc1ccc(Cl)c(-c2cn3cnc(-c4ncc[nH]4)c3cn2)c1F` [Compound 142, N-[4-chloro-2-fluoro-3-[1-(1H-imidazol-2-yl)imidazo[1,5-a]pyrazin-6-yl]phenyl]-5-fluoro-2-methoxypyridine-3-sulfonamide], the IC50 was less than 50 nM.
For `COc1ncc(Cl)cc1S(=O)(=O)Nc1ccc(F)c(-c2ccc3c(-c4nc(C)c(C)[nH]4)ncn3c2)c1F` [Compound 143, 5-chloro-N-(3-(1-(4,5-dimethyl-1H-imidazol-2-yl)imidazo[1,5-a]pyridin-6-yl)-2,4-difluorophenyl)-2-methoxypyridine-3-sulfonamide], the IC50 is less than 50 nM.
`COc1ncc(F)cc1S(=O)(=O)Nc1ccc(F)c(-c2ccc3c(-c4nc(C)c(C)[nH]4)ncn3c2)c1F` [Compound 144, N-(3-(1-(4,5-dimethyl-1H-imidazol-2-yl)imidazo[1,5-a]pyridin-6-yl)-2,4-difluorophenyl)-5-fluoro-2-methoxypyridine-3-sulfonamide] had a concentration for half-maximal inhibition (IC50) of less than 50 nM.

The record behind these values is patent publication US20240083897A1, “GCN2 MODULATING COMPOUNDS AND USES THEREOF” (HiberCell, Inc., priority 2021, published 2024).
